Patent US12371454B2, “Cyclic peptide compound having Kras inhibitory action” (priority 2019, dated 2025)
Positions of bridges follow the written chain, without caps; N, C: chain ends. Non-standard residues stand in square brackets, D forms with d. Residues, ends and D or L forms follow the SMILES beside them. *: point of attachment. hPhe(3-Cl-4-CF3) = N[C@@H](CCc1ccc(C(F)(F)F)c(Cl)c1)C(=O)O; NMePhe(4-CF3) = CN[C@@H](Cc1ccc(C(F)(F)F)cc1)C(=O)O; Pro(trans-4-Ph) = O=C(O)[C@@H]1C[C@@H](c2ccccc2)CN1; 3Oxa8azabicyclo(3.2.1)octane = C1CC2COCC1N2*; NMeAbu(4,4,4-F3) = CN[C@@H](CC(F)(F)F)C(=O)O; NMePhe(4-Cl) = CN[C@@H](Cc1ccc(Cl)cc1)C(=O)O; NMePhe(2-Cl) = CN[C@@H](Cc1ccccc1Cl)C(=O)O; Phe(3-I) = N[C@@H](Cc1cccc(I)c1)C(=O)O; NMeGly(cBu) = CN[C@H](C(=O)O)C1CCC1; NMeCha = CN[C@@H](CC1CCCCC1)C(=O)O; NEtLeu = CCN[C@@H](CC(C)C)C(=O)O; NMeChg = CN[C@H](C(=O)O)C1CCCCC1; NMeD = CN[C@@H](CC(=O)O)C(=O)O; AllylGly = C=CC[C@H](N)C(=O)O; NMeL = CN[C@@H](CC(C)C)C(=O)O; NPrAla = CCCN[C@@H](C)C(=O)O; NMeV = CN[C@H](C(=O)O)C(C)C; NMeS = CN[C@@H](CO)C(=O)O; Nle = CCCC[C@H](N)C(=O)O; Piperidide = C1CCN(*)CC1; Pyrrolidide = C1CCN(*)C1; Ac5c = NC1(C(=O)O)CCCC1; Aze = O=C(O)[C@@H]1CCN1; Sar = CNCC(=O)O; Propyl = CCC*

Tests used:
[1] = test system: Human pancreatic cancer cell line AsPC-1; experiment: Measurement of AsPC-1 cell growth inhibition (AsPC-1 CGI); type: cell-based; details: 96 h
In short: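 AsPC-1 cells in 15% FBS RPMI-1640 were exposed to test compound for 96 hours at 37° C, with CellTiter-Glo as endpoint.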

[2] = target: T1, Kras and SOS1 (biotin-tagged human Kras loaded with GDP, His-tagged human SOS1) (Homo sapiens, UniProt P01116, G12D); experiment: Protein-protein interaction inhibition between Kras and SOS1 (KrasGl2D-SOS PPI) using AlphaScreen; type: binding; details: AlphaScreen; biotin-tagged human Kras loaded with GDP, His-tagged human SOS1; read-out: KRAS G12D-SOS PPI IC50
T1 construct: made in house; host or cells: E. coli (stated for Kras only)
T1 sequence (P01116 1-188 isoform P01116-2 G12D): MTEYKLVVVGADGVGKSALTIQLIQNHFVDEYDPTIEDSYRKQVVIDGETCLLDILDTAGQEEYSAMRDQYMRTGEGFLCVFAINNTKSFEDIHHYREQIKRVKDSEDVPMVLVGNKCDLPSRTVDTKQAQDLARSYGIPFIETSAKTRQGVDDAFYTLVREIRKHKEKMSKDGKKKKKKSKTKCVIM
In short: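 Energy transfer from nickel-chelate donor beads bound to His-SOS1 to streptavidin acceptor beads bound to biotin-Kras, expressed in E. coli and loaded with GDP after purification, was monitored. Donors were excited at 680 nm; singlet oxygen reaching acceptors gave emission read at 520-620 nm.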

SMILES | IC50 [1] [nM] | IC50 [2] [nM]
CCCOC[C@H]1C(=O)N(C)CC(=O)N[C@@H](CCc2ccc(C(F)(F)F)c(Cl)c2)C(=O)N2CCC[C@H]2C(=O)NC2(CCCC2)C(=O)N(C)[C@@H](C2CCCCC2)C(=O)N(C)[C@H](C(=O)N2CCCC2)CC(=O)N(C)[C@@H](C2CCC2)C(=O)N[C@@H]([C@@H](C)CC)C(=O)N(C)CC(=O)N(C)CC(=O)N1C [Compound 126] ([NMeGly(cBu)]I[Sar][Sar][NMeS](Propyl)[Sar][hPhe(3-Cl-4-CF3)]P[Ac5c][NMeChg][NMeD]-Pyrrolidide; lactam N-11) | 50 to 100 | 0.5
CCCN1C(=O)C[C@@H](C(=O)N2CCCCC2)N(C)C(=O)[C@H](C(C)C)N(C)C(=O)C2(CCCC2)NC(=O)[C@@H]2CCCN2C(=O)[C@H](CCc2ccc(C(F)(F)F)c(Cl)c2)NC(=O)CN(C)C(=O)[C@H](CC2CCCCC2)N(C)C(=O)CN(C)C(=O)CN(C)C(=O)[C@H]([C@@H](C)CC)NC(=O)[C@@H]1C [Compound 131] ([NPrAla]I[Sar][Sar][NMeCha][Sar][hPhe(3-Cl-4-CF3)]P[Ac5c][NMeV][NMeD]-Piperidide; lactam N-11) | 100 to 500 | 3.3
CC[C@H](C)[C@@H]1NC(=O)[C@H](CC(C)C)N(CC)C(=O)C[C@@H](C(=O)N2CCCCC2)N(C)C(=O)[C@H](C2CCCCC2)N(C)C(=O)C2(CCCC2)NC(=O)[C@@H]2CCCN2C(=O)[C@H](CCc2ccc(C(F)(F)F)c(Cl)c2)NC(=O)CN(C)C(=O)[C@H](CC2CCCCC2)N(C)C(=O)CN(C)C(=O)CN(C)C1=O [Compound 137] ([NEtLeu]I[Sar][Sar][NMeCha][Sar][hPhe(3-Cl-4-CF3)]P[Ac5c][NMeChg][NMeD]-Piperidide; lactam N-11) | 50 to 100 | 0.76
CCCOC[C@H]1C(=O)N(C)CC(=O)N[C@@H](CCc2ccc(C(F)(F)F)c(Cl)c2)C(=O)N2CCC[C@H]2C(=O)NC2(CCCC2)C(=O)N(C)[C@@H](C2CCCCC2)C(=O)N(C)[C@H](C(=O)N2C3CCC2COC3)CC(=O)N(C)[C@@H](C2CCC2)C(=O)N[C@@H]([C@@H](C)CC)C(=O)N(C)CC(=O)N(C)CC(=O)N1C [Compound 140] ([NMeGly(cBu)]I[Sar][Sar][NMeS](Propyl)[Sar][hPhe(3-Cl-4-CF3)]P[Ac5c][NMeChg][NMeD]-{3Oxa8azabicyclo(3.2.1)octane}; lactam N-11) | 100 to 500 | 0.81
CC[C@H](C)[C@@H]1NC(=O)[C@H](CC(C)C)N(C)C(=O)C[C@@H](C(=O)N2CCCCC2)N(C)C(=O)[C@H](C2CCCCC2)N(C)C(=O)C2(CCCC2)NC(=O)[C@@H]2C[C@@H](c3ccccc3)CN2C(=O)[C@H](CCc2ccc(C(F)(F)F)c(Cl)c2)NC(=O)CN(C)C(=O)[C@H](CC2CCCCC2)N(C)C(=O)[C@@H]2CCN2C(=O)CN(C)C1=O [Compound 147] ([NMeL]I[Sar][Aze][NMeCha][Sar][hPhe(3-Cl-4-CF3)][Pro(trans-4-Ph)][Ac5c][NMeChg][NMeD]-Piperidide; lactam N-11) | 100 to 500 | 6.7
C=CC[C@@H]1NC(=O)[C@H](CC(C)C)N(C)C(=O)C[C@@H](C(=O)N2CCCCC2)N(C)C(=O)[C@H](C2CCCCC2)N(C)C(=O)C2(CCCC2)NC(=O)[C@@H]2CCCN2C(=O)[C@H](CCc2ccc(C(F)(F)F)c(Cl)c2)NC(=O)CN(C)C(=O)[C@H](CC2CCCCC2)N(C)C(=O)CN(C)C(=O)CN(C)C1=O [Compound 164] ([NMeL][AllylGly][Sar][Sar][NMeCha][Sar][hPhe(3-Cl-4-CF3)]P[Ac5c][NMeChg][NMeD]-Piperidide; lactam N-11) | 100 to 500 | 2.2
CCCC[C@@H]1NC(=O)[C@H](Cc2cccc(I)c2)NC(=O)CN(C)C(=O)[C@H](Cc2ccc(Cl)cc2)N(C)C(=O)CN(C)C(=O)CN(C)C(=O)[C@H]([C@@H](C)CC)NC(=O)[C@H](CC(C)C)N(C)C(=O)C[C@@H](C(=O)N2CCCCC2)N(C)C(=O)[C@H](CC(C)C)NC(=O)[C@H](Cc2ccccc2Cl)N(C)C1=O [Compound 168] ([NMeL]I[Sar][Sar][NMePhe(4-Cl)][Sar][Phe(3-I)][Nle][NMePhe(2-Cl)]L[NMeD]-Piperidide; lactam N-11) | 100 to 500 | 29
CC[C@H](C)[C@@H]1NC(=O)[C@H](CC(F)(F)F)N(C)C(=O)C[C@@H](C(=O)N2C3CCC2COC3)N(C)C(=O)[C@H](C2CCCCC2)N(C)C(=O)C2(CCCC2)NC(=O)[C@@H]2CCCN2C(=O)[C@H](CCc2ccc(C(F)(F)F)c(Cl)c2)NC(=O)CN(C)C(=O)[C@H](Cc2ccc(C(F)(F)F)cc2)N(C)C(=O)CN(C)C(=O)CN(C)C1=O [Compound 173] ([NMeAbu(4,4,4-F3)]I[Sar][Sar][NMePhe(4-CF3)][Sar][hPhe(3-Cl-4-CF3)]P[Ac5c][NMeChg][NMeD]-{3Oxa8azabicyclo(3.2.1)octane}; lactam N-11) | 20 to 50 | 0.56
